Source: PubChem BioAssay (NCI)
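GI50 marks 50% less growth. The concentration for full growth arrest is given as TGI.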

Experiments:
Assay in all cases: NCI tumour cell line growth inhibition, 384-well format
[1] = tested on: SR leukemia
[2] = tested on: SF-295 CNS
[3] = tested on: SN12C renal
[4] = tested on: RXF 393 renal
[5] = tested on: 786-0 renal
[6] = tested on: MDA-MB-435 melanoma
[7] = tested on: DU-145 prostate
[8] = tested on: TK-10 renal
[9] = tested on: HCT-15 colon
[10] = tested on: SK-MEL-2 melanoma
[11] = tested on: HT29 colon
[12] = tested on: M14 melanoma
[13] = tested on: A549 NSCLC

With `COc1cc(C)[nH]c(=O)c1CNC(=O)c1c(C)n([C@H](C)C2CCN(CC(F)(F)F)CC2)c2ccccc12` the GI50 [1] was 21.5 µM, the TGI [1] was 76.5 µM and the GI50 [2] was 76.6 µM. The TGI [2] was > 100 µM, the GI50 [3] was > 80.5 µM and the TGI [3] was > 100 µM. For the same molecule, the GI50 [4] was 28.3 µM, the TGI [4] was 79.7 µM and the GI50 [5] was 50.6 µM. For the same molecule, the TGI [5] was > 100 µM, the GI50 [6] was 58.6 µM and the TGI [6] was > 100 µM. The GI50 [7] was 51.1 µM, the TGI [7] was > 100 µM and the GI50 [8] was > 100 µM. The TGI [8] was > 100 µM, the GI50 [9] was 67 µM and the TGI [9] was > 100 µM. For the same molecule, the GI50 [10] was 38.6 µM, the TGI [10] was > 100 µM and the GI50 [11] was 39.7 µM. For the same molecule, the TGI [11] was > 100 µM, the GI50 [12] was > 72.8 µM and the TGI [12] was > 100 µM. The GI50 [13] was 46.8 µM and the TGI [13] was > 100 µM.
